Source: ChEMBL document CHEMBL1151560, “Nonpeptide glycoprotein IIb/IIIa inhibitors: 18. Indole alpha-sulfonamide acids are potent inhibitors of platelet aggregation” (Bioorg Med Chem Lett, 1997)

How the values were obtained:
[1] = species on record: Homo sapiens; assay: Inhibition of ADP-induced platelet aggregation in human gel-filtered platelets; assay type: functional
[2] = biological target: T1, Albumin (Homo sapiens, UniProt P02768); assay: Protein Binding Assay measures the ability of a compound to bind to human albumin in pH 7.4 buffer.; not soluble
[3] = biological target: Integrin alpha-IIb/beta-3 (Homo sapiens) (UniProt P05106+P08514); assay: Evaluated for competitive binding against fibrinogen receptor antagonist [125I]-L-692,884 to purified alpha IIb beta-3 integrin activated by coating onto yttrium silicate Scintillation Proximity Assay Fluomicrospheres (SPA-A assay).; assay type: protein-complex assay
[4] = biological target: T1, Albumin; assay: Protein Binding Assay measures the ability of a compound to bind to human albumin in pH 7.4 buffer.

T1 sequence (P02768 whole entry): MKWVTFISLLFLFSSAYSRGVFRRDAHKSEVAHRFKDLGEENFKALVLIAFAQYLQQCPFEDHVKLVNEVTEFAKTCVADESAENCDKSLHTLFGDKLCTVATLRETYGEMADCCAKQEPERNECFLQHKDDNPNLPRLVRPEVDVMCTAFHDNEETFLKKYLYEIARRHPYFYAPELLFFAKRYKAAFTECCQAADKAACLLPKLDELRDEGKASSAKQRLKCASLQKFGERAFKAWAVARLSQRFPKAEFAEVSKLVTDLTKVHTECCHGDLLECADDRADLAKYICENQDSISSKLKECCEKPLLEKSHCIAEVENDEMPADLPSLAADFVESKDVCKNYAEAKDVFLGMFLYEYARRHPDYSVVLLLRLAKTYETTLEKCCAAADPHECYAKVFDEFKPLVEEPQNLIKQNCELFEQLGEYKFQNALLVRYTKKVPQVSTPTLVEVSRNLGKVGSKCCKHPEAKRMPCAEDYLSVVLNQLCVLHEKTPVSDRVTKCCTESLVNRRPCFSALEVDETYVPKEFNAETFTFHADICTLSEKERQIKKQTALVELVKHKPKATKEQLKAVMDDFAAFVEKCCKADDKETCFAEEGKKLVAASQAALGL

IC50 [1] [nM] | Binding [2] | ED50 [3] [nM] | Binding [4] [%] | SMILES
150 | Insoluble |  |  | O=C(NC[C@H](NS(=O)(=O)c1ccccc1)C(=O)O)c1cc2cc(OCC3CCNCC3)ccc2n1Cc1ccccc1
45 |  | 0.28 | 98 | O=C(NC[C@H](NS(=O)(=O)c1ccccc1)C(=O)O)c1cc2cc(OCCn3ccnc3)ccc2[nH]1
12 |  | 0.07 |  | O=C(NC[C@H](NS(=O)(=O)c1cccnc1)C(=O)O)c1cc2cc(OCC3CCNCC3)ccc2[nH]1
6 |  | 0.06 | 85 | Cc1ccc(S(=O)(=O)N[C@@H](CNC(=O)c2cc3cc(OCC4CCNCC4)ccc3[nH]2)C(=O)O)cc1
5700 | Insoluble |  |  | O=C(Cc1c[nH]c2ccc(OCC3CCNCC3)cc12)NC[C@H](NS(=O)(=O)c1ccccc1)C(=O)O
15 |  | 0.49 | 57 | O=C(NC[C@H](NS(=O)(=O)c1ccccc1)C(=O)O)c1cc2ccc(OCC3CCNCC3)cc2[nH]1
810 |  |  | 47 | O=C(O)CC(NC(=O)c1cc2cc(OCC3CCNCC3)ccc2[nH]1)c1cccnc1 (stereo not given)
12 |  | 0.13 | 57 | O=C(NC[C@H](NS(=O)(=O)c1ccccc1)C(=O)O)c1cc2cc(OCCN3CCNCC3)ccc2[nH]1
13 |  | 0.099 | 66 | O=C(NC[C@H](NS(=O)(=O)c1ccccc1)C(=O)O)c1cc2cc(OCC3CCNCC3)ccc2[nH]1
17 |  | 0.04 | 63 | CC1(C)C2CCC1(CS(=O)(=O)N[C@@H](CNC(=O)c1cc3cc(OCC4CCNCC4)ccc3[nH]1)C(=O)O)C(=O)C2 (stereo not given in full)
8 |  | 0.056 | 76 | O=C(NC[C@H](NS(=O)(=O)c1ccccc1)C(=O)O)c1cc2cc(OCCC3CCNCC3)ccc2[nH]1
15 |  |  | 94 | Cn1c(C(=O)NC[C@H](NS(=O)(=O)c2ccccc2)C(=O)O)cc2cc(OCC3CCNCC3)ccc21
21 |  |  | 94 | Cn1c(C(=O)NC[C@H](NS(=O)(=O)c2ccccc2)C(=O)O)cc2cc(OCCC3CCNCC3)ccc21
45 |  | 0.07 | 99 | Nc1cc(COc2ccc3[nH]c(C(=O)NC[C@H](NS(=O)(=O)c4ccccc4)C(=O)O)cc3c2)ccn1
280 |  | 0.25 | 99 | O=C(NC[C@H](NS(=O)(=O)c1ccccc1)C(=O)O)c1cc2cc(OCc3ccncc3)ccc2[nH]1
100 |  | 2 | 98 | O=C(NC[C@H](NS(=O)(=O)c1ccccc1)C(=O)O)c1cc2cc(OCCCc3c[nH]cn3)ccc2[nH]1
1000 |  | 170 | 52 | O=C(O)CCNC(=O)c1cc2cc(OCC3CCNCC3)ccc2[nH]1
